In article PMC3923730 (Journal of Translational Medicine, 2014):
Where “and” joins values, the source holds several entries; their conditions need not be identical. Identical values can stand only once.

Assays:
[1] = Phase I trial pharmacokinetics, single i.v. ascending doses; assay type: in vivo, human
Protocol: A randomized, double-blind, placebo controlled study was performed to investigate the safety, tolerability and pharmacokinetics of single i.v. ascending doses of TRO40303 in healthy male and post-menopausal female subjects. The choice of the dose and flow rate escalation process is explained in the Result section. Seventy-two healthy volunteers were randomized, with 18 receiving a placebo and 54 an active liposomal formulation containing 20 mg/mL TRO40303 at final doses ranging from 0.5, 1, 2, 3.5, 6, 10 to 13 mg/kg with escalating flow rates from 0.04 mL/min to 35 mL/min. Within each group, 3 or 6 subjects received TRO40303 and 1 or 2 subjects received the same volume of placebo. The sample size was based on the number of doses and flow rates to be investigated. The 6 verum/2 placebo ratio per group is widely used in single ascending dose studies and provides adequate safety and pharmacokinetic information. The 3 verum/1 placebo ratio used in the last groups was chosen only to explore additional flow rates at previously studied doses.
Venous blood samples (5 mL) were collected for determination of TRO40303 concentrations in plasma at pre-dose, end of infusion, then 5 min, 15 min, 30 min, 1 h, 2 h, 4 h, 8 h, 12 h, 16 h, 24 h, 48 h, 72 h and 96 h post end of infusion into heparin–lithium Vacutainer tubes. The blood samples were gently inverted then centrifuged in a refrigerated centrifuge (+4°C) within 30 min after sampling at 1500 g for ca 10 min. The resulting plasma was frozen in two separate labelled polypropylene tubes at –20 ± 5°C until assaying.
For the quantifying TRO40303 levels in human plasma samples, the same method, GLP validated, was used and the analysis was performed at Bertin Pharma (Orleans, France). Analysis was carried out on 1200 Series (Agilent) and Series 200 (Perkin Elmer) systems interfaced to an API 4000 (AB Sciex) MS detector. Calculations were carried out with Analyst 1.4.1 and 1.5.1 (AB Sciex) software.

[2] = test system: myocardial infarction model in rats; assay: Myocardial infarction model in rats (35 min CAO, reperfusion, infarct size by TTC); assay type: in vivo; settings: rat; for IS (% AAR) / IS (% LV) / IS (% Vehicle IS): 24 h reperfusion, mean ± S.E.M.; for reduction of infarct size compared to control: p < 0.001
Protocol: In all groups of rats, the left anterior descending coronary artery was occluded during 35 min and released for reperfusion as previously described. For the dose range testing, the vehicle (IL30) or TRO40303 solution in IL30 (stock solution diluted in IL30 to administer ~1.5 mL/kg in each group) at increasing doses (0.3, 1, 3 and 10 mg/kg) were administered as a 5 min infusion through the jugular vein starting 10 min before coronary artery reperfusion (CAR). To evaluate the therapeutic window, the vehicle or TRO40303 at 1 mg/kg were also administered either 10 min before coronary artery occlusion (CAO) or 10 min after CAR. Infarct size was determined by triphenyltetrazolium chloride (TTC) staining and was calculated as a percentage of the area at risk (AAR), 24 h after reperfusion. For the dose range experiment, infarct size was expressed for all doses as a percent of the vehicle group infarct size.

[3] = human, single i.v., liposomes, 6 mg/kg, n = 12
[4] = human, single i.v., liposomes, 10 mg/kg, n = 9
[5] = human, single i.v., liposomes, 13 mg/kg, n = 6
[6] = human, single i.v., liposomes, over all doses
[7] = liposomes in human, IL30 in rats
[8] = 0.3 mg/kg in IL30 i.v. 10 min before CAR
[9] = 1 mg/kg in IL30 i.v. 10 min before CAR
[10] = 3 mg/kg in IL30 i.v. 10 min before CAR
[11] = 10 mg/kg in IL30 i.v. 10 min before CAR

## CC(C)CCC[C@@H](C)[C@H]1CC[C@H]2[C@@H]3CC/C(=N\O)[C@](C)(CCCO)[C@H]3CC[C@]12C [TRO40303, 3,5-seco-4-nor-cholestan-5-one oxime-3-ol]
[1]; [3]
  CL Min-max: 0.326 to 0.680 mL/min/kg
  Cmax Mean: 118 µg/mL
  Cmax Min-max: 59.5 to 266 µg/mL
  Terminal t1/2 Mean: 24.4 h
  Terminal t1/2 Min-max: 21.2 to 30.0 h
  Vz Mean: 0.964 L/kg
  Vz Min-max: 0.000611 to 0.00134 L/kg
[1]; human, single i.v., liposomes, 6 mg/kg, n = 12, 5 min post end of infusion
  C5min Mean: 112 µg/mL
[1]; [4]
  AUC(0-∞) Mean: 408 µg·h/mL
  AUC(0-∞) Min-max: 303 to 501 µg·h/mL
  C5min Min-max: 120 to 279 µg/mL
  CL Mean: 0.422 mL/min/kg
  CL Min-max: 0.332 to 0.549 mL/min/kg
  Cmax Mean: 194 µg/mL
  Cmax Min-max: 130 to 279 µg/mL
  Terminal t1/2 Mean: 25.3 h
  Terminal t1/2 Min-max: 19.3 to 30.2 h
  Vz Mean: 0.929 L/kg
  Vz Min-max: 0.000624 to 0.00144 L/kg
[1]; human, single i.v., liposomes, 10 mg/kg, n = 9, 5 min post end of infusion
  C5min Mean: 193 µg/mL
[1]; [5]
  AUC(0-∞) Mean: 651 µg·h/mL
  AUC(0-∞) Min-max: 468 to 814 µg·h/mL
  C5min Min-max: 148 to 371 µg/mL
  CL Mean: 0.347 mL/min/kg
  CL Min-max: 0.266 to 0.463 mL/min/kg
  Cmax Mean: 259 µg/mL
  Cmax Min-max: 167 to 371 µg/mL
  Terminal t1/2 Mean: 24.4 h
  Terminal t1/2 Min-max: 20.1 to 28.6 h
  Vz Mean: 0.723 L/kg
  Vz Min-max: 0.000599 to 0.000989 L/kg
[1]; human, single i.v., liposomes, 13 mg/kg, n = 6, 5 min post end of infusion
  C5min Mean: 248 µg/mL
[1]; [6]
  Vz: 1.1 L/kg
  mean penultimate thalf (when at least 80% of drug was eliminated): 4 h
  mean terminal thalf: 25 h
[1]; [7]
  AUC(0-∞) in humans compared to rats for the same dose: ~ 7 fold
  C5min in humans compared to rats for the same dose: ~ 2 fold
[2]; [8]
  IS (% AAR): 26 ± 4 % AAR
  IS (% LV): 11 ± 2 % LV
  IS (% Vehicle IS): 77 ± 15 % Vehicle IS
[2]; 0.3 mg/kg in IL30 i.v. bolus 10 min before reperfusion, 24 h after reperfusion
  infarct size compared to vehicle: smaller but not significantly different
[2]; 1 mg/kg in IL30 10 min after the onset of CAR
  infarct size compared to vehicle: unchanged
[2]; 1 mg/kg in IL30 10 min before 35 min CAO
  reduction of infarct size compared to vehicle: 55%
[2]; [9]
  IS (% AAR): 19 ± 2 % AAR
  IS (% LV): 7 ± 1 % LV
  IS (% Vehicle IS): 56 ± 6 % Vehicle IS
[2]; 1 mg/kg in IL30 i.v. bolus 10 min before reperfusion, p < 0.01
  reduction of infarct size compared to vehicle: 40%
[2]; [10]
  IS (% AAR): 15 ± 2 % AAR
  IS (% LV): 6 ± 1 % LV
  IS (% Vehicle IS): 44 ± 7 % Vehicle IS
[2]; 3 mg/kg in IL30 i.v. bolus 10 min before reperfusion, 3 mg/kg
  reduction of infarct size compared to control: 50% and ~ 50%
[2]; [11]
  IS (% AAR): 25 ± 6 % AAR
  IS (% LV): 7 ± 2 % LV
  IS (% Vehicle IS): 45 ± 10 % Vehicle IS
[2]; 10 mg/kg in IL30 i.v. bolus 10 min before reperfusion, 10 mg/kg
  reduction of infarct size compared to control: 50% and ~ 50%
